Source: US10961211B2, “Isotopically-stabilized tetronimide compounds” (Midwestern University, priority 2019, dated 2021)

Assay: LCMS analysis of deuterium/hydrogen exchange in solution
Assay type: physicochemical
Conditions: NMR sample in dmso-d6, standing at room temperature
Method: A sample of rac-1 (440 mg, 1.07 mmol) was stirred in THF (10 mL) in the presence of K2CO3 (645 mg, 4.69 mmol; 4.4 eq.) and D2O (1.77 g, 88.5 mmol; 82.6 eq.) at room temperature. The reaction progress was monitored by LCMS and Mass analysis. After 9 days a sample was taken and concentrated under reduced pressure to give 96-100% pure (LCMS, UV 215 and 254 nm respectively) racemic 1-d3 (38.9 mg) according to ^1H-NMR analysis. […] Calcd. for C18H11D3F3NO5S M: 416.39

For `NC1=C(OS(=O)(=O)Cc2ccccc2)C(=O)C(c2ccc(C(F)(F)F)cc2)O1` (racemic) [Compound 1-d3, 2-amino-4-oxo-5-(4-(trifluoromethyl)phenyl)-4,5-dihydrofuran-3-yl phenylmethanesulfonate], the “deuterium/hydrogen exchange (isotopic stability)” value was “deuterium loss took place in dmso-d6”.
